{"source": "patent US5880119A", "about": "“Mercaptoacetylamino 1,3,4,5-tetrahydro-benzo(C)azepin-2-one disulfide derivatives useful as inhibitors of enkephalinase and ACE” (Merrell Pharmaceuticals Inc., priority 1997, dated 1999)", "molecular_target": "T1, ACE (Angiotensin-Converting Enzyme) of rat kidney preparations (Rattus norvegicus, UniProt P47820)", "T1 construct": "compound- or vehicle-dosed rat kidney preparations; from tissue; host or cells: kidney of male Sprague-Dawley rats", "T1 sequence (P47820 36-1313)": "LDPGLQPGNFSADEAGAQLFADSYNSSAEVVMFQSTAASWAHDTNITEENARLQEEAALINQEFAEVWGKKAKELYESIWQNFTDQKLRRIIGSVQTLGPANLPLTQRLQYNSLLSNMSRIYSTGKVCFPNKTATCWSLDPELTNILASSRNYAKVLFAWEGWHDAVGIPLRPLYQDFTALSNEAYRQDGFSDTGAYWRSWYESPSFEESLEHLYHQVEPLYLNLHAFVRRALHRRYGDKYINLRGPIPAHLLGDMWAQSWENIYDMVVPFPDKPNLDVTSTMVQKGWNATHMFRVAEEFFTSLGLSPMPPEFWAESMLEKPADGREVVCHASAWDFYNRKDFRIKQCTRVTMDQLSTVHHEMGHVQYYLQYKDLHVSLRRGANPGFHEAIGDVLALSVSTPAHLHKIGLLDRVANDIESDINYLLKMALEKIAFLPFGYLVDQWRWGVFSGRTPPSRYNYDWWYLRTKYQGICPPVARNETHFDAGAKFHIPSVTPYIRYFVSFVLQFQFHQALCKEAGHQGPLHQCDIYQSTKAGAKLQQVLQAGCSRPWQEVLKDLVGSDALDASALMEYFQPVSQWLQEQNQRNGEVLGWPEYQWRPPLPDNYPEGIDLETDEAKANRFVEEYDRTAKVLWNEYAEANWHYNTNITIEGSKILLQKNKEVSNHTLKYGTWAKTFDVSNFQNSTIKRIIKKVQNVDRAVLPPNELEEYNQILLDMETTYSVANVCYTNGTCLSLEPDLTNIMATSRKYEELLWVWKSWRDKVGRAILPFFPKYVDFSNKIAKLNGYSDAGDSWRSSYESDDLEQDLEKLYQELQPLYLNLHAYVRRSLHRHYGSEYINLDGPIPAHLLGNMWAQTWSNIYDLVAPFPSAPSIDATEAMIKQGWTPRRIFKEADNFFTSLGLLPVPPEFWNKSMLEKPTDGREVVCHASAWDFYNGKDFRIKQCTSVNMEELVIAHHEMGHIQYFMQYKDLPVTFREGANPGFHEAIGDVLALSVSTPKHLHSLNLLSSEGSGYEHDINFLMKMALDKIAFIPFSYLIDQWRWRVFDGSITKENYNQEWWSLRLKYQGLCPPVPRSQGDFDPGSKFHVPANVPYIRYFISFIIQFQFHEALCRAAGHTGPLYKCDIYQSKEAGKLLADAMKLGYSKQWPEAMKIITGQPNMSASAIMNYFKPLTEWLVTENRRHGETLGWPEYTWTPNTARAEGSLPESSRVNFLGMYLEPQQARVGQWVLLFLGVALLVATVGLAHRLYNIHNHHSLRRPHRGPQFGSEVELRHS", "experiment": "Radiometric ACE activity assay on rat kidney preparations", "type": "biochemical, rat (Sprague-Dawley)", "conditions": "1 μM enalaprilat; substrate tritiated hippuryl-glycyl-glycine; compound- or vehicle-dosed rat kidney preparations", "data": [{"smiles": "C[C@H](N[C@@H](CCc1ccccc1)C(=O)O)C(=O)N1CCC[C@H]1C(=O)O", "note": "[enalaprilat]", "values": [{"measurement": "inhibition of radioactive product formation", "value": "Complete inhibition"}]}]}
